One block for each compound: values may come before it.
Columns and labels:
subjects [1] = conditions: reported by H Padma-Nathan et al and Eli Lilly/ICOS presentation; cited from earlier work
subjects [2] = experiment: Study 2: Compound A multiple dosing, non-escalating (Example 3) vs escalating (Example 4), myalgia/back pain (aching); format: in vivo; conditions: for Myalgia/back pain, Mild/moderate / Myalgia/back pain, Severe: subjects affected/dosed
Protocol: (§1) All adverse events observed or recorded during the studies were recorded by the investigator, including information about concomitant illnesses and therapeutic interventions. For all adverse events, the investigator pursued and obtained information adequate to determine the outcome of the adverse event. Physical examinations at screening and medical histories of all subjects were normal with no indication of any joint, muscle, or tendon weakness.
Six subjects were given 20 mg of Compound A three times a day (tid) for 7 days. Dosage took the form of immediate release tablets.
Nine subjects were given 2.5 mg of Compound A three times a day (tid) for 7 days, then 7.5 mg tid for 7 days, then 20 mg tid for a further 7 days. Dosage took the form of immediate release tablets.

subjects [3] = experiment: Study 3: Compound A escalating dosing with 24-hour drug holiday (Examples 6 and 7), myalgia and back pain (aching); format: in vivo; conditions: for Back pain, Mild / Back pain, Moderate / Back pain, Severe / Myalgia, Mild / Myalgia, Moderate / Myalgia, Severe: 20 mg tid 7 days, 24-hour drug holiday, 20 mg tid 6 days, subjects affected/dosed
Protocol: as §1
(§2) Nine subjects were given 2.5 mg of Compound A three times a day (tid) for 7 days followed by 20 mg tid for a further 7 days. The subjects were given a 24-hour drug holiday, i.e. a day without taking the inhibitor, then 20 mg tid dosing was continued for another 6 days. Dosage took the form of immediate release tablets.
as §2, with “4 days, then 7.5 mg tid for 3 days, then” for “7 days followed by”

subjects [4] = experiment: Aching as side effect of multiple dosing of PDE5 inhibitors (background observations); conditions: for aching as a side effect of multiple dosing: in vivo
Source text: A problem associated with the multiple daily dosing of PDE5 inhibitors is that subjects experience, as a side effect, aching in certain parts of the body. Subjects describe this aching as predominantly a dull aching without muscle tenderness. Aching is experienced predominantly in the“postural muscles”, typically the calves, thighs, buttocks, lower back, shoulders and neck regions. These symptoms may be described as myalgia or back pain; for the purposes of this application, they will be referred to as“aching”.

subjects [5] = experiment: Study 1: double blind, placebo-controlled, multiple dose study of sildenafil, adverse events (myalgia, back pain); format: in vivo; conditions: for Back pain / Myalgia: oral capsules, subjects affected/subjects dosed
Protocol: as §1
Dosage took the form of oral capsules.

[6] = Example 3: 20 mg tid for 7 days, immediate release tablets
[7] = Example 4: 2.5 mg tid 7 days, then 7.5 mg tid 7 days, then 20 mg tid 7 days
[8] = Example 4 escalating dosing regime
[9] = Example 6 escalating dosing regime
[10] = Example 7: 2.5 mg tid 4 days, 7.5 mg tid 3 days
[11] = Example 7 escalating dosing regime

Compound: CN1CC(=O)N2[C@H](c3ccc4c(c3)OCO4)c3[nH]c4ccccc4c3C[C@@H]2C1=O [tadalafil, (6R, 12aR)-2,3,6,7,12,12a-hexahydro-2-methyl-6-(3,4-methylenedioxyphenyl)-pyrazino[2′,1′:6,1]pyrido[3,4-b]indole-1,4-dione]
backache and myalgia (subjects [1]): reported to cause backache and myalgia

Myalgia/back pain, Mild/moderate (subjects [2]; [6]): 0/6 | Myalgia/back pain, Severe (subjects [2]; [6]): 6/6 | subjects withdrawn due to the severity of the aching (subjects [2]; Example 3: 20 mg tid, after only 4 days of treatment, six subjects): four | Myalgia/back pain, Mild/moderate (subjects [2]; [7]): 1/9 | Myalgia/back pain, Severe (subjects [2]; [7]): 1/9 | aching compared with non-escalating regime of Example 3 (subjects [2]; [8]): significant reduction in aching | withdrawals (subjects [2]; [8]): no withdrawals | Back pain, Mild (subjects [3]; Example 6: 2.5 mg tid 7 days): 2/9 | Back pain, Moderate (subjects [3]; Example 6: 2.5 mg tid 7 days): 0/9 | Back pain, Severe (subjects [3]; Example 6: 2.5 mg tid 7 days): 0/9 | Myalgia, Mild (subjects [3]; Example 6: 2.5 mg tid 7 days): 2/9 | Myalgia, Moderate (subjects [3]; Example 6: 2.5 mg tid 7 days): 3/9 | Myalgia, Severe (subjects [3]; Example 6: 2.5 mg tid 7 days): 1/9 | aching compared with non-escalating regime of Example 3 (subjects [3]; [9]): significant reduction in aching | withdrawals (subjects [3]; [9]): no withdrawals | Back pain, Mild (subjects [3]; [10]): 0/9 | Back pain, Moderate (subjects [3]; [10]): 0/9 | Back pain, Severe (subjects [3]; [10]): 0/9 | Myalgia, Mild (subjects [3]; [10]): 4/9 | Myalgia, Moderate (subjects [3]; [10]): 1/9 | Myalgia, Severe (subjects [3]; [10]): 0/9 | aching compared with non-escalating regime of Example 3 (subjects [3]; [11]): significant reduction in aching | withdrawals (subjects [3]; [11]): no withdrawals
Compound: CCCc1nn(C)c2c(=O)[nH]c(-c3cc(C(=O)CN4CCOCC4)ccc3OCC)nc12 [Compound A, 5-(2-ethoxy-5-morpholinoacetylphenyl)-1-methyl-3-n-propyl-1,6-dihydro-7H-pyrazolo[4,3-d]pyrimidin-7-one]
incidence of aching after the 24-hour drug-free period (subjects [3]; Example 6, 20 mg tid resumed): no apparent increase | effectiveness of triple dosing in reducing aching (subjects [3]; Example 7 (triple dosing)): particularly effective in reducing aching | incidence of aching after the 24-hour drug-free period (subjects [3]; Example 7, 20 mg tid resumed): no apparent increase

Compound: CCc1c2nc(-c3cc(S(=O)(=O)N4CCN(CC)CC4)cnc3OCCOC)[nH]c(=O)c2nn1Cc1ccccn1 [WO 99/54333, Example 4, 3-ethyl-5-[5-(4-ethylpiperazin-1-ylsulphonyl)-2-(2-methoxyethoxy)pyridin-3-yl]-2-(pyridin-2-yl)methyl-2,6-dihydro-7H-pyrazolo[4,3-d]-pyrimidin-7-one]
aching as a side effect of multiple dosing (subjects [4]): observed

Compound: CCCc1nn(C)c2c(=O)[nH]c(-c3cc(S(=O)(=O)N4CCN(C)CC4)ccc3OCC)nc12 [sildenafil, 5-[2-ethoxy-5-(4-methyl-1-piperazinylsulphonyl)phenyl]-1-methyl-3-n-propyl-1,6-dihydro-7H-pyrazolo[4,3-d]pyrimidin-7-one]
incidence of aching (subjects [4]; 25 mg tid): 60% | incidence of aching (subjects [4]; 75 mg tid): 100% | day by which aching disappears (subjects [4]; higher doses (for example, 75 mg tid)): sixth or seventh day | day on which aching generally commences (subjects [4]; multiple dosing regime): second or third day | Back pain (subjects [5]; 25 mg tid): 2/10 | Myalgia (subjects [5]; 25 mg tid): 2/10 | Back pain (subjects [5]; 50 mg tid): 2/9 | Myalgia (subjects [5]; 50 mg tid): 5/9 | reports of severe treatment-related adverse events which led to discontinuance of the treatment (subjects [5]; 75 mg tid): three | Back pain (subjects [5]; 75 mg tid): 5/8 | Myalgia (subjects [5]; 75 mg tid): 3/8 | most common adverse events (subjects [5]; 25, 50 or 75 mg tid): back pain, headache and myalgia | persistence of headache and myalgia that occurred after a few days of treatment (subjects [5]; lower doses (25 mg tid and 50 mg tid)): did not persist with further treatment

Compound: CCCOc1ccc(S(=O)(=O)N2CCN(CC)CC2)cc1-c1nc2c(CC)n(Cc3ccccn3)nc2c(=O)[nH]1 [WO 98/49166, Example 4, 3-ethyl-5-[5-(4-ethylpiperazin-1-ylsulphonyl)-2-n-propoxyphenyl]-2-(pyridin-2-yl)methyl-2,6-dihydro-7H-pyrazolo[4,3-d]pyrimidin-7-one]
aching as a side effect of multiple dosing (subjects [4]): observed
